How the values were obtained:
[1] = test system: Namalwa AG4 cells; test: Cell proliferation assay (3H-thymidine incorporation); type: cell-based; settings: one collective range stated for the tested compounds, read-out: IC50 values for inhibiting proliferation of Namalwa AG4 cells
Experimental: 5.48.3 Cell Proliferation Assay
Cell lines Namalwa, MUTZ-5, and UT-7 are obtained from the Deutsche Sammlung von Mikroorganismen und Zellkulturen GmbH (Braunschweig, Germany). The cell line KG-1 is obtained from the American Type Culture Collection (Manassas, Va., USA). Cell proliferation as indicated by ^3H-thymidine incorporation is measured in all cell lines as follows.
Cells are plated in 96-well plates at 6000 cells per well in media. The cells are pre-treated with compounds at about 100, 10, 1, 0.1, 0.01, 0.001, 0.0001 and 0 μM in a final concentration of about 0.25% DMSO in triplicate at 37° C. in a humidified incubator at 5% CO2 for 72 hours. One microcurie of 3H-thymidine (Amersham) is then added to each well, and cells are incubated again at 37° C. in a humidified incubator at 5% CO2 for 6 hours. The cells are harvested onto UniFilter GF/C filter plates (Perkin Elmer) using a cell harvester (Tomtec), and the plates are allowed to dry overnight. Microscint 20 (Packard) (25 μl/well) is added, and plates are analyzed in TopCount NXT (Packard). Each well is counted for one minute. Percent inhibition of cell proliferation is calculated by averaging all triplicates and normalizing to the DMSO control (0% inhibition). Each compound is tested in each cell line in three separate experiments. Final IC50s are calculated using non-linear regression, sigmoidal dose-response, constraining the top to 100% and bottom to 0%, allowing variable slope. (GraphPad Prism v3.02).
Abilities of certain compounds for inhibiting proliferation of Namalwa AG4 cells were determined using procedures substantially similar to those described in Section 5.48.3, above.

| melting point | Compound | IC50 [1] |
| --- | --- | --- |
| 270 to 272 °C | Cc1ccc2nc(C)n(C3CCC(=O)NC3=O)c(=O)c2c1 (stereo not shown) [Example 5.1, 3-(2,6-dimethyl-4-oxo-4H-quinazolin-3-yl)-piperidine-2,6-dione] | – |
| 273 to 275 °C | Cc1nc2ccc(F)cc2c(=O)n1C1CCC(=O)NC1=O (stereo not shown) [Example 5.3, 3-(6-fluoro-2-methyl-4-oxo-4H-quinazolin-3-yl)-piperidine-2,6-dione] | – |
| 276 to 278 °C | Cc1nc2ccc(Cl)cc2c(=O)n1C1CCC(=O)NC1=O (stereo not shown) [Example 5.4, 3-(6-chloro-2-methyl-4-oxo-4H-quinazolin-3-yl)-piperidine-2,6-dione] | – |
| 302 to 305 °C | O=C1CCC(n2cnc3ccc(Cl)cc3c2=O)C(=O)N1 (stereo not shown) [Example 5.7, 3-(6-chloro-4-oxo-4H-quinazolin-3-yl)-piperidine-2,6-dione] | – |
| 285 to 287 °C | Cc1ccc2ncn(C3CCC(=O)NC3=O)c(=O)c2c1 (stereo not shown) [Example 5.9, 3-(6-methyl-4-oxo-4H-quinazolin-3-yl)-piperidine-2,6-dione] | – |
| 212.5 to 214.5 °C | Cc1nc2ccc(CNC(=O)OC(C)(C)C)cc2c(=O)n1C1CCC(=O)NC1=O (stereo not shown) [Example 5.11, [3-(2,6-dioxo-piperidin-3-yl)-2-methyl-4-oxo-3,4-dihydro-quinazolin-6-ylmethyl]-carbamic acid tert-butyl ester] | – |
| 264 to 268 °C | Cc1nc2ccc(CNC(=O)N(C)C)cc2c(=O)n1C1CCC(=O)NC1=O (stereo not shown) [Example 5.15, 3-[3-(2,6-dioxo-piperidin-3-yl)-2-methyl-4-oxo-3,4-dihydro-quinazolin-6-ylmethyl]-1,1-dimethyl-urea] | – |
| 277 to 279 °C | Cc1nc2cc(C(F)(F)F)ccc2c(=O)n1C1CCC(=O)NC1=O (stereo not shown) [Example 5.32, 3-(2-methyl-4-oxo-7-trifluoromethyl-4H-quinazolin-3-yl)-piperidine-2,6-dione] | – |
| 296 to 298 °C | O=C1CCC(n2cnc3cc(F)ccc3c2=O)C(=O)N1 (stereo not shown) [Example 5.33, 3-(7-fluoro-4-oxo-4H-quinazolin-3-yl)-piperidine-2,6-dione] | – |
| 313 to 315 °C | Cc1ccc2c(=O)n(C3CCC(=O)NC3=O)cnc2c1 (stereo not shown) [Example 5.34, 3-(7-methyl-4-oxo-4H-quinazolin-3-yl)-piperidine-2,6-dione] | – |
| 240 to 242 °C | Cc1nc2cc(CNC(=O)OC(C)(C)C)ccc2c(=O)n1C1CCC(=O)NC1=O (stereo not shown) [Example 5.36, [3-(2,6-dioxo-piperidin-3-yl)-2-methyl-4-oxo-3,4-dihydro-quinazolin-7-ylmethyl]-carbamic acid tert-butyl ester] | – |
| 290 to 292 °C | Cc1nc2c(Cl)cccc2c(=O)n1C1CCC(=O)NC1=O (stereo not shown) [Example 5.40, 3-(8-chloro-2-methyl-4-oxo-4H-quinazolin-3-yl)-piperidine-2,6-dione] | – |
| 290 to 292 °C | Cc1cccc2c(=O)n(C3CCC(=O)NC3=O)cnc12 (stereo not shown) [Example 5.44, 3-(8-methyl-4-oxo-4H-quinazolin-3-yl)-piperidine-2,6-dione] | – |
| 238 to 240 °C | Cc1nc2c(Cl)cc(Cl)cc2c(=O)n1C1CCC(=O)NC1=O (stereo not shown) [Example 5.46, 3-(6,8-dichloro-2-methyl-4-oxo-4H-quinazolin-3-yl)-piperidine-2,6-dione] | – |

Second part, the compound before the results:

| Compound | melting point | IC50 [1] |
| --- | --- | --- |
| Cc1nc2ccc(CN)cc2c(=O)n1C1CCC(=O)NC1=O.Cl (stereo not shown) | 299 to 301 °C | – |
| Cc1nc2cc(CN)ccc2c(=O)n1C1CCC(=O)NC1=O.Cl (stereo not shown) | 313 to 315 °C | – |
| Cc1ccc(NC(=O)NCc2ccc3nc(C)n(C4CCC(=O)NC4=O)c(=O)c3c2)cc1Cl (stereo not shown) [1-(3-chloro-4-methyl-phenyl)-3-[3-(2,6-dioxo-piperidin-3-yl)-2-methyl-4-oxo-3,4-dihydro-quinazolin-6-ylmethyl]-urea] | 186 to 188 °C | 0.01 to 5.5 µM |
| Cc1nc2ccc(CNC(=O)Nc3ccc(Cl)cc3)cc2c(=O)n1C1CCC(=O)NC1=O (stereo not shown) [1-(4-chloro-phenyl)-3-[3-(2,6-dioxo-piperidin-3-yl)-2-methyl-4-oxo-3,4-dihydro-quinazolin-6-ylmethyl]-urea] | 225 to 227 °C | 0.01 to 5.5 µM |
| Cc1cccc(NC(=O)NCc2ccc3nc(C)n(C4CCC(=O)NC4=O)c(=O)c3c2)c1 (stereo not shown) [1-[3-(2,6-dioxo-piperidin-3-yl)-2-methyl-4-oxo-3,4-dihydro-quinazolin-6-ylmethyl]-3-m-tolyl-urea] | 200 to 202 °C | 0.01 to 5.5 µM |
| Cc1nc2ccc(CNC(=O)Cc3ccc(Cl)cc3)cc2c(=O)n1C1CCC(=O)NC1=O (stereo not shown) [2-(4-chloro-phenyl)-N-[3-(2,6-dioxo-piperidin-3-yl)-2-methyl-4-oxo-3,4-dihydro-quinazolin-6-ylmethyl]-acetamide] | 229.5 to 231.5 °C | 0.01 to 5.5 µM |
| Cc1nc2ccc(CNC(=O)c3ccc(Cl)c(Cl)c3)cc2c(=O)n1C1CCC(=O)NC1=O (stereo not shown) [3,4-dichloro-N-[3-(2,6-dioxo-piperidin-3-yl)-2-methyl-4-oxo-3,4-dihydro-quinazolin-6-ylmethyl]-benzamide] | – | 0.01 to 5.5 µM |
| Cc1ccc2c(=O)n(C3CCC(=O)NC3=O)c(C)nc2c1 (stereo not shown) [3-(2,7-dimethyl-4-oxo-4H-quinazolin-3-yl)-piperidine-2,6-dione] | 305 °C (dec.) | – |
| Cc1cccc2c(=O)n(C3CCC(=O)NC3=O)c(C)nc12 (stereo not shown) [3-(2,8-dimethyl-4-oxo-4H-quinazolin-3-yl)-piperidine-2,6-dione] | 296 to 298 °C | – |
| Cc1nc2c(C(F)(F)F)cccc2c(=O)n1C1CCC(=O)NC1=O (stereo not shown) [3-(2-methyl-4-oxo-8-trifluoromethyl-4H-quinazolin-3-yl)-piperidine-2,6-dione] | 351 to 353 °C | – |
| COc1cc2nc(C)n(C3CCC(=O)NC3=O)c(=O)c2cc1OC (stereo not shown) [3-(6,7-dimethoxy-2-methyl-4-oxo-4H-quinazolin-3-yl)-piperidine-2,6-dione] | 325 °C (dec.) | – |
| Cc1nc2c(Br)cccc2c(=O)n1C1CCC(=O)NC1=O (stereo not shown) [3-(8-bromo-2-methyl-4-oxo-4H-quinazolin-3-yl)-piperidine-2,6-dione] | 307 to 309 °C | – |
| Cc1nc2c(O)cccc2c(=O)n1C1CCC(=O)NC1=O (stereo not shown) [3-(8-hydroxy-2-methyl-4-oxo-4H-quinazolin-3-yl)-piperidine-2,6-dione] | 266 to 268 °C | – |
| Cc1nc2ccc(CNC(=O)c3ccc(Cl)cc3)cc2c(=O)n1C1CCC(=O)NC1=O (stereo not shown) [4-chloro-N-[3-(2,6-dioxo-piperidin-3-yl)-2-methyl-4-oxo-3,4-dihydro-quinazolin-6-ylmethyl]-benzamide] | 267 to 269 °C | – |
| Cc1nc2ccc(CNC(=O)c3cccc(C(F)(F)F)c3)cc2c(=O)n1C1CCC(=O)NC1=O (stereo not shown) [N-[3-(2,6-dioxo-piperidin-3-yl)-2-methyl-4-oxo-3,4-dihydro-quinazolin-6-ylmethyl]-3-trifluoromethyl-benzamide] | 220 to 222 °C | 0.01 to 5.5 µM |
| Cc1nc2ccc(CNC(=O)c3ccc(OC(F)(F)F)cc3)cc2c(=O)n1C1CCC(=O)NC1=O (stereo not shown) [N-[3-(2,6-dioxo-piperidin-3-yl)-2-methyl-4-oxo-3,4-dihydro-quinazolin-6-ylmethyl]-4-trifluoromethoxy-benzamide] | 165 to 167 °C | 0.01 to 5.5 µM |
| Cc1nc2ccc(CNC(=O)c3ccc(C(F)(F)F)cc3)cc2c(=O)n1C1CCC(=O)NC1=O (stereo not shown) [N-[3-(2,6-dioxo-piperidin-3-yl)-2-methyl-4-oxo-3,4-dihydro-quinazolin-6-ylmethyl]-4-trifluoromethyl-benzamide] | 221 to 223 °C | 0.01 to 5.5 µM |
| Cc1nc2ccc(CNC(=O)c3ccc(SC(F)(F)F)cc3)cc2c(=O)n1C1CCC(=O)NC1=O (stereo not shown) [N-[3-(2,6-dioxo-piperidin-3-yl)-2-methyl-4-oxo-3,4-dihydro-quinazolin-6-ylmethyl]-4-trifluoromethyl-sulfanyl-benzamide] | 169 to 171 °C | 0.01 to 5.5 µM |
| Cc1nc2ccc(CNC(=O)C3CC3)cc2c(=O)n1C1CCC(=O)NC1=O (stereo not shown) [cyclopropanecarboxylic acid [3-(2,6-dioxo-piperidin-3-yl)-2-methyl-4-oxo-3,4-dihydro-quinazolin-6-ylmethyl]-amide] | 281 to 283 °C | – |
| CCCCCCC(=O)NCc1ccc2nc(C)n(C3CCC(=O)NC3=O)c(=O)c2c1 (stereo not shown) [heptanoic acid [3-(2,6-dioxo-piperidin-3-yl)-2-methyl-4-oxo-3,4-dihydro-quinazolin-6-ylmethyl]-amide] | 223 to 225 °C | 0.01 to 5.5 µM |

Reference: patent publication US8492395B2, “7-substituted quinazolinone compounds and compositions comprising the same” (Celgene Corporation, priority 2007, dated 2013)
